Assay [1] addresses Gamma-aminobutyric acid receptor subunit alpha-1 (Rattus norvegicus, UniProt P62813).
Assay [2] addresses Voltage-dependent L-type calcium channel subunit alpha-1C (Rattus norvegicus, UniProt P22002). It counts as functional.
Assay [3] deals with T1, Prostaglandin G/H synthase 1 (Rattus norvegicus, UniProt Q63921).
T1 sequence (Q63921 whole entry): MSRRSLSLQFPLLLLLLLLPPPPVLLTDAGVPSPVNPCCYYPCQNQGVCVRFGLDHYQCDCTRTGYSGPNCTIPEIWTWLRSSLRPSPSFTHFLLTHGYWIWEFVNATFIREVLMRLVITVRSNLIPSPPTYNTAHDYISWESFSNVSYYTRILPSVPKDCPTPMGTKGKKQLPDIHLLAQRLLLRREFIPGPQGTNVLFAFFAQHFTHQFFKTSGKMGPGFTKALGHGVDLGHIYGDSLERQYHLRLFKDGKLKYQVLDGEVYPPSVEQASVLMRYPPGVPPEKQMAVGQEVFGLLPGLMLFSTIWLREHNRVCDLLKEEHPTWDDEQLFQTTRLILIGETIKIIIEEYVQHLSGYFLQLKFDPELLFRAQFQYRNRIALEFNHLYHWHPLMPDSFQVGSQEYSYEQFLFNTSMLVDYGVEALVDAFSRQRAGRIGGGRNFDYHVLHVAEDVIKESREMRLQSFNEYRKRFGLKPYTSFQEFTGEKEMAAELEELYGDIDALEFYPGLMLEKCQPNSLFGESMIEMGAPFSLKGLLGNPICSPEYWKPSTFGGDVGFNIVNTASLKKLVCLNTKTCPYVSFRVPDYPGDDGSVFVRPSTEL
It counts as functional.

For assay [4], the target named is T2, Muscarinic acetylcholine receptor M2 (Homo sapiens, UniProt P08172).
T2 sequence (P08172 whole entry): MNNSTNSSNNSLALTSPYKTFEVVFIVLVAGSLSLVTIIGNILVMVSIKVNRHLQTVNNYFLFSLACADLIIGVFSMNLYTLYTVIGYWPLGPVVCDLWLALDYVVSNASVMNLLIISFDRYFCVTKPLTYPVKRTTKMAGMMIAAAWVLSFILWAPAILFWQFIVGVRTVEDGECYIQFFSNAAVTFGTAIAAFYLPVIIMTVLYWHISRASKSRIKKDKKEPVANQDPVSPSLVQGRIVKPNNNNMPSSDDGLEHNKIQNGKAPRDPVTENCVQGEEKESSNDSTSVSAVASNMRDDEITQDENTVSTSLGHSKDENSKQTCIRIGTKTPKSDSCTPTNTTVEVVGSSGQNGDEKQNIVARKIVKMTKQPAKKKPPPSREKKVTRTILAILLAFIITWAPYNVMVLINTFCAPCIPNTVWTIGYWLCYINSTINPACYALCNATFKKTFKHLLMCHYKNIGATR
It counts as functional, cell-based.

For assay [5], the target named is 3',5'-cyclic-AMP phosphodiesterase 4D (Homo sapiens, UniProt Q08499). The assay is classed as functional.
Assay [6] has as its target 5-hydroxytryptamine receptor 2B (Homo sapiens, UniProt P41595). It counts as functional, cell-based.
The target of assay [7] is Sodium-dependent noradrenaline transporter (Homo sapiens, UniProt P23975).
For assay [8], the target named is T2, Muscarinic acetylcholine receptor M2. It counts as functional, cell-based. The source holds these as a separate data set.
The target of assay [9] is Delta-type opioid receptor (Homo sapiens, UniProt P41143).
The target of assay [10] is Beta-2 adrenergic receptor (Homo sapiens, UniProt P07550).
For assay [11], the target named is T3, 5-hydroxytryptamine receptor 2C (Homo sapiens, UniProt P28335).
T3 sequence (P28335 whole entry): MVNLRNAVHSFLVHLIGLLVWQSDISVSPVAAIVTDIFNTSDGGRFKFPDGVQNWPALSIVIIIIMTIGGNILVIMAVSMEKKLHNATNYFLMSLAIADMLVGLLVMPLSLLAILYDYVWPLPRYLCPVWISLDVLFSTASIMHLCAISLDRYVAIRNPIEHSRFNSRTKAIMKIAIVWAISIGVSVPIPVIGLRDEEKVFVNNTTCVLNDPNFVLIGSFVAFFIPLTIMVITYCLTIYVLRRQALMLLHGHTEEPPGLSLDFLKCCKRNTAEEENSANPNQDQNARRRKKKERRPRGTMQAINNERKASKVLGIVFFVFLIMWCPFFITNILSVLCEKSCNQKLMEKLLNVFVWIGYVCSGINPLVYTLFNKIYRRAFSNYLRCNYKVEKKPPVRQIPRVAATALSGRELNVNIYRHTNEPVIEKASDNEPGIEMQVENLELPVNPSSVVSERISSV

The next assay has as its target T4, Progesterone receptor (Homo sapiens, UniProt P06401).
T4 sequence (P06401 whole entry): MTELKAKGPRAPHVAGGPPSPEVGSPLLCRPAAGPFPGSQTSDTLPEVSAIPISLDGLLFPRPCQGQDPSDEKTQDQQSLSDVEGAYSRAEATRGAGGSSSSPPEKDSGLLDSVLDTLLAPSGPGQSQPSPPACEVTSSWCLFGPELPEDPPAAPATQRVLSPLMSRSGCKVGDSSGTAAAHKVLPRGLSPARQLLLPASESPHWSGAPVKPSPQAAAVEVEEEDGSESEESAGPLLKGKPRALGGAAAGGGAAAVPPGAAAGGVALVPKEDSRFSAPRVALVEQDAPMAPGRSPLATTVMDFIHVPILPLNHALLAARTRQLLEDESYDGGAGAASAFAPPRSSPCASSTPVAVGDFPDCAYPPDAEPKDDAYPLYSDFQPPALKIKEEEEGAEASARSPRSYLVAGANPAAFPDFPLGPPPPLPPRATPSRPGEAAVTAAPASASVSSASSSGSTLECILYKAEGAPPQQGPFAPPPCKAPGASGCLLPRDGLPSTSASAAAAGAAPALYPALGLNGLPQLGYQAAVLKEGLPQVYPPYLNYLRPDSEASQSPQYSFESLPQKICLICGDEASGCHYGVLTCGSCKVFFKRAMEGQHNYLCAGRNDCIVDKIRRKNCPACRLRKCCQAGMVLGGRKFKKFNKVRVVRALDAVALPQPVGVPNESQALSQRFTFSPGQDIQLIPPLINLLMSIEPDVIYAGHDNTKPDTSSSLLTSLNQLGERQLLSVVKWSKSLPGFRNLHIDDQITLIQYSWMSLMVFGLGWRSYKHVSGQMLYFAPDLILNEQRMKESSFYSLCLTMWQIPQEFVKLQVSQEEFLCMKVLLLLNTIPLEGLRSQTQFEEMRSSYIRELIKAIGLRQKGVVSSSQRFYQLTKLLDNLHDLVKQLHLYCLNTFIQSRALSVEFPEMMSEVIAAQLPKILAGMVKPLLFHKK
It counts as functional.

From ChEMBL document CHEMBL5291721, “A preclinical secondary pharmacology resource illuminates target-adverse drug reaction associations of marketed drugs” (Nat Commun, 2023) come the findings set out here.
Also: assay procedure not described here.

3',5'-cyclic-AMP phosphodiesterase 4D, sequence (Q08499 whole entry): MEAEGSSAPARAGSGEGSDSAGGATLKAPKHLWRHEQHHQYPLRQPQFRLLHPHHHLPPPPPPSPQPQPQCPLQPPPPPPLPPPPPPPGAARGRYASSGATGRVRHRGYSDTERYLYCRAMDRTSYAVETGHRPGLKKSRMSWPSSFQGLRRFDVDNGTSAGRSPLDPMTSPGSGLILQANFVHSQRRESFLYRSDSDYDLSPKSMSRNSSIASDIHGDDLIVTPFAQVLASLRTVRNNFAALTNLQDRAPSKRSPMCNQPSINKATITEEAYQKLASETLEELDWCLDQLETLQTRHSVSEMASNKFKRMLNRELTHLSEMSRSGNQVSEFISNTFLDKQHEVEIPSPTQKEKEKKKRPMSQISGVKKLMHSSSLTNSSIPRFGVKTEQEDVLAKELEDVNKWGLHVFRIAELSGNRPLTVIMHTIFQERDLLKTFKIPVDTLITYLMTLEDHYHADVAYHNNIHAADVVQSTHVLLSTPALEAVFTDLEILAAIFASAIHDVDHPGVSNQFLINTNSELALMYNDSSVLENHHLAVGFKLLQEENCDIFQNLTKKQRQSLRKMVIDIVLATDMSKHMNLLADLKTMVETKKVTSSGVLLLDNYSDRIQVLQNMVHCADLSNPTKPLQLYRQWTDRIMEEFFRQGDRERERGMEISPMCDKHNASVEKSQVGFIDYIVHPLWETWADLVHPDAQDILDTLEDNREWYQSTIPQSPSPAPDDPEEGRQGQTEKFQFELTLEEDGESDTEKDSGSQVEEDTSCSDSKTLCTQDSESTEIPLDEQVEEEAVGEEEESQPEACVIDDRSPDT
Voltage-dependent L-type calcium channel subunit alpha-1C, sequence (P22002 whole entry): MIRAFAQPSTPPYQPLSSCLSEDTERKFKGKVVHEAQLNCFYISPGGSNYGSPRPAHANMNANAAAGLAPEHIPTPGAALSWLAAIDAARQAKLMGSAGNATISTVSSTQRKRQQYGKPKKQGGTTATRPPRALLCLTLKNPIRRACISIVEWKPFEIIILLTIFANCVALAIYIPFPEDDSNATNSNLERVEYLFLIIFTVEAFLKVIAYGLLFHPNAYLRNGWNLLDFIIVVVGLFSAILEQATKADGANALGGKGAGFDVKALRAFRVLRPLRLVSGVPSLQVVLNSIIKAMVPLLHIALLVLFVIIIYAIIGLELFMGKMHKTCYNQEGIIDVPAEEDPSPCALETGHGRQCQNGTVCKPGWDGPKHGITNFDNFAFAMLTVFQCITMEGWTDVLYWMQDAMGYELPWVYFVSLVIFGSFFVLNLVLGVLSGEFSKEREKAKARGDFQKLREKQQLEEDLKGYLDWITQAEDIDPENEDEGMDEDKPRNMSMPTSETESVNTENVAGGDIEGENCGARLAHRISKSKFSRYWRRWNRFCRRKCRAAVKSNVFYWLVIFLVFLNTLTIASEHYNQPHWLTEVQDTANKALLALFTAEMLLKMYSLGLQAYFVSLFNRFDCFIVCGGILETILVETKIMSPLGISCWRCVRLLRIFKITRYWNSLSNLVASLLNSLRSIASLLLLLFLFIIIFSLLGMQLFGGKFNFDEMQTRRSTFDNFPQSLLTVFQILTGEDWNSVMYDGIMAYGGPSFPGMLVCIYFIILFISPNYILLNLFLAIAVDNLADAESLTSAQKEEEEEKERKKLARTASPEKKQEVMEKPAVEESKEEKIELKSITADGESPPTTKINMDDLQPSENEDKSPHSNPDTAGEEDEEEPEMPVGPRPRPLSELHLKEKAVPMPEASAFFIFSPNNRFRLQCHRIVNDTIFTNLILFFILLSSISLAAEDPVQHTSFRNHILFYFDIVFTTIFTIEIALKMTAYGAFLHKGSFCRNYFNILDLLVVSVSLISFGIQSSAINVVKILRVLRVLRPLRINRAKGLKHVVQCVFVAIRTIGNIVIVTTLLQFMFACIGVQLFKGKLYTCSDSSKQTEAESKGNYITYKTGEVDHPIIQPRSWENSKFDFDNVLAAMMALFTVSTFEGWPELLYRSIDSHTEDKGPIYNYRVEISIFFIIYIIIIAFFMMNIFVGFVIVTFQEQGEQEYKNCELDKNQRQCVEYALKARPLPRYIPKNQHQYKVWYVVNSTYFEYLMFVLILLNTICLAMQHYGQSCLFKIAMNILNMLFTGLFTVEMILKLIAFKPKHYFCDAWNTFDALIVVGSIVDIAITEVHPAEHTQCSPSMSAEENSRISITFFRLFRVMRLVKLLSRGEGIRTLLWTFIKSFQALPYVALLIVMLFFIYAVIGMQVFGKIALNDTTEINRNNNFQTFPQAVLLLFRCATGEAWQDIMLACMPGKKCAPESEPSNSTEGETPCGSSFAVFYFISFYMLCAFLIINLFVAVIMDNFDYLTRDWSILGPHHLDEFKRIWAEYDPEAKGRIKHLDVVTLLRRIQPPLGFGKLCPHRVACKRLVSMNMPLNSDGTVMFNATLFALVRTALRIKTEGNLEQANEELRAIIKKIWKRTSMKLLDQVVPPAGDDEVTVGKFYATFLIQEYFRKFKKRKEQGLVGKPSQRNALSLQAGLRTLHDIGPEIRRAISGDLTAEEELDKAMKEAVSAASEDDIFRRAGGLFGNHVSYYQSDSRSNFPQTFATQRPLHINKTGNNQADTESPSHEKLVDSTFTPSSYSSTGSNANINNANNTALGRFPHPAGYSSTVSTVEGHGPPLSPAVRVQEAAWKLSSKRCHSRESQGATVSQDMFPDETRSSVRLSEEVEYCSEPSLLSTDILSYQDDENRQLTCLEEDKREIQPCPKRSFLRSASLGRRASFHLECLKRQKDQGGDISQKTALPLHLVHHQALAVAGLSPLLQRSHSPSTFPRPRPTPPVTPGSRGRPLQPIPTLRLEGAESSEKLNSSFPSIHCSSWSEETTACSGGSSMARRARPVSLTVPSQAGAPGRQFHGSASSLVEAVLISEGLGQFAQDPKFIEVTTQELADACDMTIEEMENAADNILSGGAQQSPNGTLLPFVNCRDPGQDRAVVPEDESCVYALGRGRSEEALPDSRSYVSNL
Sodium-dependent noradrenaline transporter, sequence (P23975 whole entry): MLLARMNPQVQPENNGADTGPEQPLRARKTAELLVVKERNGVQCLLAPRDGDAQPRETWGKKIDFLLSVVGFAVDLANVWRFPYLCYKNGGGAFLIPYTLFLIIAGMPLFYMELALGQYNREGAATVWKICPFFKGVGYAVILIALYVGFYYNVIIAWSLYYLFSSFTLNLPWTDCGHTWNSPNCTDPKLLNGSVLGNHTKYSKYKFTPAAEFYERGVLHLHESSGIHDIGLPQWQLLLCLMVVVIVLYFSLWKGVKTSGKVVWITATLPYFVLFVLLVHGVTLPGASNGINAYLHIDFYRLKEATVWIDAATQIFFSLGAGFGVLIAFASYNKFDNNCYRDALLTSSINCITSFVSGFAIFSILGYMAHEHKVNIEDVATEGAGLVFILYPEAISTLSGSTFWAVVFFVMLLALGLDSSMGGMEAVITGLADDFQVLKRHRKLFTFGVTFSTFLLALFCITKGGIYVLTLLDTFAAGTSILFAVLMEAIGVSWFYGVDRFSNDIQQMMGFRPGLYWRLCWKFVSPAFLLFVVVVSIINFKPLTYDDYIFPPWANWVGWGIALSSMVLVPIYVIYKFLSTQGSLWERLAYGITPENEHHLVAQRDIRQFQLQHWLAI
Gamma-aminobutyric acid receptor subunit alpha-1, sequence (P62813 whole entry): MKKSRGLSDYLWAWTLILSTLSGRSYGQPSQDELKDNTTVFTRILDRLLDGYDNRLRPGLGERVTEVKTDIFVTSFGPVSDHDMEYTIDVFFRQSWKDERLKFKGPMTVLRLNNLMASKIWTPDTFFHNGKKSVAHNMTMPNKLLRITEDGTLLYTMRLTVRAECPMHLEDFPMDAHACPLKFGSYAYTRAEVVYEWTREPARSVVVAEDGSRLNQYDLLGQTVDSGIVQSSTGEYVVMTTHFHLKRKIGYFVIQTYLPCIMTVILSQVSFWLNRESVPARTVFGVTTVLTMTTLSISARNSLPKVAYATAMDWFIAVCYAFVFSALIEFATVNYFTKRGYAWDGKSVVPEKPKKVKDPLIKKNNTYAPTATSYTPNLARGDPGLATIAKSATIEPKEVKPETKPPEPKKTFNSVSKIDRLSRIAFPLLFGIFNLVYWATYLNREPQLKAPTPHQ
Beta-2 adrenergic receptor, sequence (P07550 whole entry): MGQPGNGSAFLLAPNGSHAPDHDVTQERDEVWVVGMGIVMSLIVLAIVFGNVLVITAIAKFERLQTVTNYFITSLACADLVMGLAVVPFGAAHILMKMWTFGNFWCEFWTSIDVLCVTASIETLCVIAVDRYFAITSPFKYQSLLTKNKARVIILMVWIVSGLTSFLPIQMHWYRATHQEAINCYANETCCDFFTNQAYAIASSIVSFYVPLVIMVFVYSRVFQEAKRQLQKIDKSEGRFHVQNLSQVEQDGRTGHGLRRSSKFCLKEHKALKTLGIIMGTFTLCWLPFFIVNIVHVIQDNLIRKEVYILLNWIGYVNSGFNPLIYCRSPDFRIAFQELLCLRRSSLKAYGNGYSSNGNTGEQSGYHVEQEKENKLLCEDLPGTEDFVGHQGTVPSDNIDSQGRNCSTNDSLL
5-hydroxytryptamine receptor 2B, sequence (P41595 whole entry): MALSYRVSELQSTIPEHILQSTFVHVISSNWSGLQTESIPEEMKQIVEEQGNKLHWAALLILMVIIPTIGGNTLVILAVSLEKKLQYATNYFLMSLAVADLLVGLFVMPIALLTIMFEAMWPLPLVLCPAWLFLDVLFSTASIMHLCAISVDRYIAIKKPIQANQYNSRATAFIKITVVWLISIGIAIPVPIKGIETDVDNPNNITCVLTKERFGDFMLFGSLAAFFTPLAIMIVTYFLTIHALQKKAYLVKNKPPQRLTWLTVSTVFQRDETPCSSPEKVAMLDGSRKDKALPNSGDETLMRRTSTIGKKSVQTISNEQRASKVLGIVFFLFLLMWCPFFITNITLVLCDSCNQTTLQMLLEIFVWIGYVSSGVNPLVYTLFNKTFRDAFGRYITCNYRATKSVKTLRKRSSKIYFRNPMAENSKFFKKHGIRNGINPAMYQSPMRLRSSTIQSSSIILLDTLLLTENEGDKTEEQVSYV

Turning to `CCC(NC(C)C)C(O)c1ccc(O)c2[nH]c(=O)ccc12` (stereo not given) [PROCATEROL], the AC50 in assay [1], in assay [2], in [3], in assay [4], in assay [5] and in assay [6] was more than 30 µM in each case. In addition, the AC50 is more than 30 µM in [7]; more than 30 µM in [8]; more than 30 µM in [9]; 0.2 µM in assay [10]; more than 30 µM in [11]; more than 30 µM on Progesterone receptor.
With `COc1ccc2cc(CCC(C)=O)ccc2c1` [NABUMETONE], the AC50 is more than 10 µM in assay [1]; more than 10 µM in [2]; more than 10 µM in assay [3]; more than 10 µM in assay [4]; more than 30 µM in assay [5]; more than 10 µM in [6]. The AC50 was 20 µM in assay [7]; more than 10 µM in assay [8]; more than 30 µM in assay [9]; more than 10 µM in assay [10]; more than 30 µM in [11]; more than 10 µM on Progesterone receptor.
Consider `CC(CN(C)C)C(C)(O)Cc1ccc(Cl)cc1` (stereo not given) [CLOBUTINOL], for which the AC50 is more than 10 µM in assay [1]; more than 10 µM in [2]; more than 30 µM in assay [3]; more than 10 µM in assay [4]; more than 30 µM in assay [5]; more than 10 µM in assay [6]. The AC50 is more than 30 µM in assay [7]; more than 10 µM in assay [8]; more than 30 µM in assay [9]; more than 30 µM in assay [10]; more than 30 µM in assay [11]; more than 30 µM at Progesterone receptor.
`CC(=O)c1ccc(S(=O)(=O)NC(=O)NC2CCCCC2)cc1` [ACETOHEXAMIDE]: the AC50 is more than 10 µM in [1]; more than 10 µM in [2]; more than 10 µM in assay [3]; more than 10 µM in assay [4]; more than 30 µM in [5]; more than 30 µM in assay [6]. Further, the AC50 in [7] is more than 10 µM; in [8] it was more than 10 µM; in [9], more than 30 µM; in [10], more than 10 µM; in assay [11], more than 30 µM; on Progesterone receptor, more than 10 µM.
Consider `C=CCN1CCc2nc(N)sc2CC1` [TALIPEXOLE], for which the AC50 in assay [1], in assay [2], in assay [3], in [4], in [5] and in [6] was more than 30 µM throughout. Besides, the AC50 (in [7]; in assay [8]; in [9]; in assay [11]; on Progesterone receptor) was more than 30 µM throughout.
For the compound `CCc1cc2c(s1)-n1c(C)nnc1CN=C2c1ccccc1Cl` [ETIZOLAM], the AC50 was more than 30 µM in assay [2]; more than 30 µM in assay [3]; more than 30 µM in assay [4]; 19 µM in assay [5]; more than 30 µM in assay [6]; more than 30 µM in assay [7]. Further, the AC50 (in assay [8]; in assay [9]; in assay [10]; in [11]; on Progesterone receptor) was more than 30 µM in each case.
In the case of `CC(C)(C)NCC(O)c1ccccc1Cl` (stereo not given) [TULOBUTEROL], the AC50 in assay [1], in assay [2], in [3], in [4], in assay [5] and in [6] was more than 30 µM each time. Besides, the AC50 (in assay [7]; in [8]; in assay [9]; in assay [11]; at Progesterone receptor) was more than 30 µM in each case.
Consider `CCOC(=O)c1ncn2c1CN(C)C(=O)c1cc(F)ccc1-2` [FLUMAZENIL], for which the AC50 in assay [2], in [3], in assay [4], in [5], in [6] and in assay [7] was more than 30 µM in each case. In addition, the AC50 (in assay [8]; in [9]; in [10]; in [11]; on Progesterone receptor) was more than 30 µM throughout.
On to `CC(C(=O)O)c1ccc2c(c1)CC(=O)c1ccccc1S2` (stereo not given) [ZALTOPROFEN], for which the AC50 was more than 30 µM in [2]; more than 30 µM in assay [3]; more than 30 µM in [4]; 24 µM in assay [5]; more than 30 µM in [6]; more than 30 µM in assay [7]. For the same compound, the AC50 (in assay [8]; in assay [9]; in [10]; in assay [11]; at Progesterone receptor) was more than 30 µM each time.
With `CCN1CCCC1CNC(=O)c1cc(S(=O)(=O)CC)ccc1OC` (stereo not given) [SULTOPRIDE], the AC50 in assay [1] was more than 30 µM; in assay [3], more than 30 µM; in [4], more than 30 µM; in assay [5], more than 30 µM; in assay [6], 1.3 µM; in [7], more than 30 µM. Further, the AC50 (in assay [8]; in assay [9]; in assay [10]; in assay [11]; at Progesterone receptor) was more than 30 µM throughout.
As for `O=C(CCCN1CCC(O)(c2ccc(Br)cc2)CC1)c1ccc(F)cc1` [BROMPERIDOL], the AC50 was more than 30 µM in [1]; more than 30 µM in [2]; more than 30 µM in [3]; more than 30 µM in [4]; more than 30 µM in assay [5]; 7.3 µM in [6]. In addition, the AC50 (in [8]; in assay [9]; in assay [10]; in [11]; on Progesterone receptor) was more than 30 µM in each case.

What is called AC50 is the concentration at which the activity in the assay is half-maximal.
